Assay results: patent US5961482A, “Iontotherapeutic device and process and iontotherapeutic unit dose” (Rutgers, The State University Of New Jersey, priority 1996, dated 1999)
Counter-ions that a name gives are not always drawn. Like-named read-outs stand apart in the source and are kept apart here.

Tests used:
[1] = for Cumulative Amount of Drug Absorbed: donor 6.2 mg/ml pH 9.0, 37° C.
[2] = for Tlag: printed beside pH 4.0 value
[3] = system: blood glucose level (B.G.L.) in the diabetic hairless rats; assay: Reduction in blood glucose level in diabetic hairless rats; type: in vivo
Protocol: An aqueous solution of insulin at a concentration of 250 IU/ml is prepared by dissolving 193.8 mg (25.8 IU/mg) of pure porcine insulin in 20 ml of citrate buffer at pH 3.6. Two ml of the insulin solution so prepared is filled into a refillable dosage unit having a microporous membrane as the drug-releasing surface. This insulin-containing reservoir-type dosage unit is then assembled as a part of the pharmaceutical reservoir electrode of the iontotherapeutic device and applied successively on the abdominal skin of 9 diabetic hairless rats with the transdermal periodic iontotherapeutic system operating at 1 mA with square waveform mode to study the effect of frequency, on/off ratio and treatment duration on the reduction of blood glucose level. The results are shown and compared, respectively, in FIGS. 16, 17 and 18.
The same insulin solution is prepared in the same way as in Example 1, except that a phosphate buffer at pH 7.1 is used to replace the double-distilled water. Two ml of the insulin solution so prepared is filled into a refillable dosage unit having a microporous membrane as the drug-releasing surface. This unit dose is applied to 3 diabetic hairless rats following the same operation procedures as in Example 3 to study the effect of treatment duration on the reduction of blood glucose level.
(§1) An aqueous buffer solution of insulin (250 IU/ml) is prepared in citrate-phosphate buffer at pH 3.68. An aliquot of 2.5 ml of this insulin solution is filled into the refillable dosage unit having a microporous membrane as the drug-releasing surface. The dosage unit is then assembled as a part of the pharmaceutical reservoir electrode of the iontotherapeutic device and membrane surface thereof is applied to the skin at abdominal region of 3 groups of anaesthetized, diabetic hairless rats. Blood samples are withdrawn at regular time intervals and glucose levels are measured by glucose analyzer. The reduction in glucose level from hyperglycemic state is the pharmacodynamic responses to the insulin absorbed transdermally.
as §1, with “5” for “3 groups of”

[4] = In vitro skin permeation of insulin, Valia-Chien cell, I^125-insulin scintillation counting; type: in vitro ADME, hairless rat; conditions: for Skin Permeation Rate: 5.3 IU/ml, pH 7.1
Protocol: (§2) An aqueous solution of insulin (5.3 IU/ml containing 0.3 mcCi of I^125 -insulin) is prepared and adjusted to pH 7.1 using NaOH. An aliquot of 3.5 ml of this insulin solution is filled into the refillable dosage unit having a microporous membrane as the drug-releasing surface. The dosage unit is then assembled as a part of the pharmaceutical reservoir electrode of the iontotherapeutic device and membrane surface thereof is applied to the stratum corneum side of hairless rat skin mounted in the Valia-Chien skin permeation cell at 37° C. Samples are withdrawn at regular time intervals and radioactivity is measured by scintillation counter to determine the amount of insulin which has been transdermally absorbed.
as §2, with “pH 3.7, 5.2 or” for “pH”, “either HCl or NaOH solution.” for “NaOH.”, “radio-activity” for “radioactivity”

[5] = Plasma immunoreactive insulin concentration in diabetic rabbits by radioimmunoassay; type: in vivo; conditions: TPIS 1 mA, 500 IU/ml pH 7.10
Protocol: (§3) An aqueous solution of insulin (500 IU/ml) at pH 7.10 is used. An aliquot of 2.5 ml of this insulin solution is filled into the refillable dosage unit having a microporous membrane as the drug-releasing surface. The dosage unit is then assembled as a part of the pharmaceutical reservoir electrode of the iontotherapeutic device and membrane surface thereof is applied to the skin at dorsal region of 3 diabetic rabbits. Blood samples are withdrawn at regular time intervals and analyzed for immunoreactive insulin concentration by radioimmunoassay and for glucose levels by glucose analyzer. The reduction in glucose level from hyperglycemic state is the pharmacodynamic responses to the insulin transdermally absorbed.
An aqueous solution of insulin (500 IU/ml) at pH 7.10 is used. An aliquot of 2.5 ml of this insulin solution is filled into the refillable dosage unit having a microporous membrane as the drug-releasing surface. The dosage unit is then assembled as a part of the pharmaceutical reservoir electrode of the iontotherapeutic device and membrane surface thereof is applied to the abdominal skin of 2 groups of diabetic rabbits. Blood samples are withdrawn at regular time intervals and analyzed for immunoreactive insulin concentration by radioimmunoassay and for glucose levels by glucose analyzer. […]

[6] = system: blood glucose level (B.G.L.) in diabetic rabbits; assay: Reduction of blood glucose levels in diabetic rabbits by glucose analyzer; type: in vivo
Protocol: as §3
An aqueous solution of insulin (500 IU/ml) at pH 7.10 is used. An aliquot of 2.5 ml of this insulin solution is filled into the refillable dosage unit having a microporous membrane as the drug-releasing surface. The dosage unit is then assembled as a part of the pharmaceutical reservoir electrode of the iontotherapeutic device and membrane surface thereof is applied to the abdominal skin of 2 groups of diabetic rabbits. Blood samples are withdrawn at regular time intervals and analyzed for immunoreactive insulin concentration by radioimmunoassay and for glucose levels by glucose analyzer. The reduction in glucose level from hyperglycemic state is the pharmacodynamic responses to the insulin transdermally absorbed.

Compound: CN(C)[C@@H]1C(=O)C(C(N)=O)=C(O)[C@@]2(O)C(=O)C3=C(O)c4c(O)cccc4[C@@](C)(O)[C@H]3C[C@@H]12 [Tetracycline HCl, tetracycline HCl]
- Cumulative Amount of Drug Absorbed ([1]; No TPIS, 1.25 hrs): 0.0180 mcg/cm^2
- Cumulative Amount of Drug Absorbed ([1]; No TPIS, 2.25 hrs): 0.0550 mcg/cm^2
- Cumulative Amount of Drug Absorbed ([1]; No TPIS, 3.25 hrs): 0.0650 mcg/cm^2
- Cumulative Amount of Drug Absorbed ([1]; No TPIS, 4.25 hrs): 0.1450 mcg/cm^2
- Cumulative Amount of Drug Absorbed ([1]; No TPIS, 5.25 hrs): 0.3040 mcg/cm^2
- Cumulative Amount of Drug Absorbed ([1]; With TPIS (1 mA, 10 min/hr, 2000 Hz, square, on/off 4/1), 1.25 hrs): 0.1765 mcg/cm^2
- Cumulative Amount of Drug Absorbed ([1]; With TPIS (1 mA, 10 min/hr, 2000 Hz, square, on/off 4/1), 2.25 hrs): 0.2555 mcg/cm^2
- Cumulative Amount of Drug Absorbed ([1]; With TPIS (1 mA, 10 min/hr, 2000 Hz, square, on/off 4/1), 3.25 hrs): 0.7815 mcg/cm^2
- Cumulative Amount of Drug Absorbed ([1]; With TPIS (1 mA, 10 min/hr, 2000 Hz, square, on/off 4/1), 4.25 hrs): 1.3235 mcg/cm^2
- Cumulative Amount of Drug Absorbed ([1]; With TPIS (1 mA, 10 min/hr, 2000 Hz, square, on/off 4/1), 5.25 hrs): 3.5600 mcg/cm^2

Compound: COc1ccc2c(c1)c(CC(=O)O)c(C)n2C(=O)c1ccc(Cl)cc1 [Indomethacin, indomethacin]
- Skin Permeation Rate ([1]; No TPIS, pH 5.5): 1.47 mcg/cm^2 /hr
- Skin Permeation Rate ([1]; With TPIS (1.2 mA, 5 min/hr for 7 hours, 2000 Hz, square, on/off 2/1), pH 2.5): 0.76 mcg/cm^2 /hr
- Skin Permeation Rate ([1]; With TPIS (1.2 mA, 5 min/hr for 7 hours, 2000 Hz, square, on/off 2/1), pH 4.5): 0.44 mcg/cm^2 /hr
- Skin Permeation Rate ([1]; With TPIS (1.2 mA, 5 min/hr for 7 hours, 2000 Hz, square, on/off 2/1), pH 5.5): 6.30 mcg/cm^2 /hr

Compound: COc1ccc2c3c1O[C@H]1C(=O)CC[C@H]4[C@@H](C2)N(C)CC[C@]314 [Hydrocodone, hydrocodone]
- Skin Permeation Rate ([2]; Control, pH 4.0): 3.10 mcg/cm^2 /hr
- Skin Permeation Rate ([2]; Control, pH 7.5, ± S.D.): 4.75 ± 1.70 mcg/cm^2 /hr
- Tlag ([2]; Control): 5.17 h
- Skin Permeation Rate ([2]; DC mode, 1 mA, 2 min hourly for 12 hours, pH 4.0): 37.5 mcg/cm^2 /hr
- Skin Permeation Rate ([2]; DC mode, 1 mA, 2 min hourly for 12 hours, pH 7.5, ± S.D.): 7.61 ± 2.74 mcg/cm^2 /hr
- Tlag ([2]; DC mode, 1 mA, 2 min hourly): 0.72 h
- Tlag ([2]; periodic wave mode, 2000 Hz, on/off 1/1, 1 mA): 0.90 h
- Skin Permeation Rate ([2]; periodic wave mode, square wave, 2000 Hz, on/off 1/1, 1 mA, 2 min hourly, pH 4.0): 59.4 mcg/cm^2 /hr
- Skin Permeation Rate ([2]; periodic wave mode, square wave, 2000 Hz, on/off 1/1, 1 mA, 2 min hourly, pH 7.5, ± S.D.): 7.01 ± 1.16 mcg/cm^2 /hr

Compound: insulin
- blood glucose levels ([3]; TPIS 1 mA, 2 KHz, on/off 1/1, 40 min, 250 IU/ml pH 3.68, waveforms compared): reduced substantially
- blood glucose levels, Day 1 ([3]; TPIS 1 mA, 2 KHz, square, on/off 1/1, 40 min, 250 IU/ml pH 3.68, Day 1): reduced substantially
- reduction of blood glucose level, effect of treatment duration ([3]; TPIS 1 mA, on/off 1/1, 1000 Hz, pH 7.1): difference in the rate and the duration, but with equal effectiveness
- reduction of blood glucose level, effect of treatment duration 20-40 minutes ([3]; TPIS 1 mA, on/off 8/1, 2000 Hz, pH 3.6): equally effective
- reduction of blood glucose level, 2000 Hz vs 1000 Hz ([3]; TPIS 1 mA, square waveform, frequency of 2000 Hz vs 1000 Hz, pH 3.6): greater magnitude and a longer duration of reduction
- blood glucose, Day 3 ([3]; TPIS on Day 3 with no insulin in electrode, after insulin delivered on Day 1 (skin depot)): also reduced
- Skin Permeation Rate ([4]; TIDD 1 mA, 0 Hz, 5 min per 60 min for 7 hrs): 37.5 (±4.5) mcIU/cm^2 /hr
- increase in TPIS-facilitated skin permeability, pH dependence ([4]; lower pH solution (pH 3.7) vs pH 5.2 and 7.1): greater increase
- Skin Permeation Rate ([4]; no iontotherapy, 48 hours): 3.94±0.29 mcIU/cm^2 /hr
- plasma immunoreactive insulin concentration ([5]; 2 KHz, on/off 1/1, square, 40 min, dorsal skin): increases rapidly
- plasma immunoreactive insulin concentration, TPIS vs TIDD ([5]; 40 min vs TIDD 4 mA, 80 min, abdominal skin): increases more rapidly
- reduction of blood glucose level by TIDD ([6]; TIDD (4× current, 2× administration time), pH 7.10): lower than the normoglycemic level
- blood glucose levels ([6]; TPIS 1 mA, 2 KHz, on/off 1/1, square, 40 min, 500 IU/ml pH 7.10, dorsal skin): reduced substantially
- blood glucose levels, TPIS vs TIDD ([6]; TPIS 1 mA, 40 min vs TIDD 4 mA, 80 min, 500 IU/ml pH 7.10, abdominal skin): reduced more instantaneously
- reduction of blood glucose level by TPIS ([6]; TPIS, from hyperglycemic level, pH 7.10): near instantaneous reduction
- blood glucose level control by TPIS vs SC ([6]; TPIS, pH 7.1, compared with subcutaneous administration): controlled at a highly constant level
